Assay results: article PMC5477230 (Nature chemical biology, 2016)
“Also recorded” adds a separate entry of the source. Where two headings read alike, the source gives them in different places. * marks the point of attachment. Cbz = O=C(OCc1ccccc1)*; CH2F = FC*

Columns and labels:
[1] = tested on: DPP9 knockout THP-1 cells; assay: LDH cytotoxicity assay, DPP9 knockout THP-1; assay type: cell-based
J774 cells [2] = conditions: cited from earlier work
[3] = tested on: CASP1 knockout THP-1 cells; assay: CellTiter-Glo cell viability, CASP1 knockout THP-1; assay type: cell-based; conditions: CASP1 knockout THP-1, 48 h, compared to DMSO
[4] = tested on: U937 cells and monocyte-derived macrophages; conditions: 8 μM; cited from earlier work
DPP9 = conditions: read-out: IC50 DPP9; cited from earlier work
[5] = tested on: DPP8/9 double knockout THP-1 cells; assay: LDH cytotoxicity assay, DPP8/9 double knockout THP-1; assay type: cell-based
DPP4 = conditions: cited from earlier work
control THP-1 cells = assay: CellTiter-Glo cell viability, control THP-1; assay type: cell-based; conditions: read-out: IC50 cell viability (CellTiter-Glo)
DPP8 = conditions: read-out: IC50 DPP8; cited from earlier work
MCF7 cells = assay: CellTiter-Glo cell viability, MCF7; assay type: cell-based; conditions: MCF7, 48 h
rats = conditions: cited from earlier work
DPP7 = conditions: cited from earlier work
[6] = tested on: DPP8/9 knockout THP-1 cells; assay: CellTiter-Glo cell viability, DPP8/9 knockout THP-1; assay type: cell-based; conditions: read-out: IC50 cell viability (CellTiter-Glo); DPP8/9 KO1 THP-1, 48 h
[7] = tested on: Caspase-1 knockout THP-1 cells; assay: LDH cytotoxicity assay, caspase-1 knockout THP-1; assay type: cell-based
HT-1080 cells = assay: CellTiter-Glo cell viability, HT-1080; assay type: cell-based; conditions: HT-1080, 48 h
GSDMD = GSDMD cleavage by immunoblotting; assay type: cell-based; conditions: THP-1 cells, 24 h
THP-1 macrophages [8] = conditions: for LDH release: wild-type THP-1 cells; for blockade of Val-boroPro-induced pyroptosis: THP-1 macrophages, 50 μM, 30 min pre-treatment, 6 h
RAW 264.7 cells = assay: LDH cytotoxicity assay, RAW 264.7; conditions: for LDH release: RAW 264.7; for effect on cumulative Val-boroPro-induced LDH release: RAW 264.7, 24 hours; for blockade of Val-boroPro-induced pyroptosis: RAW 264.7 macrophages, 50 μM, 30 min pre-treatment, 6 h
[9] = tested on: caspase-1 knockout RAW 264.7 cells; assay: Cell viability, caspase-1 knockout RAW 264.7; assay type: cell-based, mouse; conditions: for cell killing: caspase-1 knockout RAW 264.7
J774 cells [10] = assay: LDH cytotoxicity assay, J774
[11] = tested on: Casp1−/− knockout C57BL/6NJ mice; assay: Cytokine stimulation in Casp1−/− knockout mice; assay type: in vivo; conditions: 100 μg/mouse, 6 h
wild-type mice = assay: Cytokine stimulation in wild-type mice; assay type: in vivo; conditions: oral, Val-boroPro 100 μg/mouse, sitagliptin 1000 μg/mouse
SCPEP1 = SCPEP1 (Homo sapiens, UniProt Q9HB40); assay: EnPlex serine hydrolase selectivity profiling; assay type: biochemical; conditions: 10 μM; EnPlex and competitive ABPP
U937 cells = assay: LDH cytotoxicity assay, U937
[12] = tested on: primary mouse bone marrow derived macrophages (mBMDMs); assay: LDH cytotoxicity assay, mBMDMs
[13] = tested on: primary human peripheral blood mononuclear cells (hPBMCs); assay: LDH cytotoxicity assay, hPBMCs
ASC-knockout THP-1 cells = assay type: cell-based
HL-60 cells = assay: LDH cytotoxicity assay, HL-60
THP-1 macrophages [14] = assay: IL-1β expression by immunoblotting; conditions: 10 μM
[15] = tested on: GSDMD knockout THP-1 cells; assay: LDH cytotoxicity assay, GSDMD knockout THP-1; assay type: cell-based

SCPEP1, sequence (Q9HB40 27-452, species assumed): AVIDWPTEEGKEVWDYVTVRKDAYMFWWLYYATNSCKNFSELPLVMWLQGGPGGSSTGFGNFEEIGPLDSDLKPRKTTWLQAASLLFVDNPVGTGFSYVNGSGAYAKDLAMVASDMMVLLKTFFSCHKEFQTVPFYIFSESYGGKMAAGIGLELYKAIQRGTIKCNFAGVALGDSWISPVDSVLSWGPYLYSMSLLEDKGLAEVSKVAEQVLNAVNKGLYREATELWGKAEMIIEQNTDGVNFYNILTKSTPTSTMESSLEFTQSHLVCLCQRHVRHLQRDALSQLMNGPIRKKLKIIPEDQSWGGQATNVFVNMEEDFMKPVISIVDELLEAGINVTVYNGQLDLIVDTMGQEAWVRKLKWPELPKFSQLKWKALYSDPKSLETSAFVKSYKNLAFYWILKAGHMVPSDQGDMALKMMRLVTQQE

Molecule: 1G244
- additional LDH release / cytotoxicity ([1]; DPP9 knockout THP-1, Val-boroPro 2 μM, 1G244 10 μM, 24 h): induced additional LDH release
- cell death (J774 cells [2]): induces cell death
- cell death (CellTiter-Glo) [3]: killed
- form of cell death induced [4]: induced a form of cell death that appeared to be apoptosis
- IC50 (DPP9): 53 nM
- additional LDH increase [5]: no additional LDH increase
- inhibition of DPP4 (DPP4): does not inhibit
- IC50 (control THP-1 cells; control THP-1, 48 h): 2700 nM
- IC50 (DPP8): 14 nM
- cell killing (CellTiter-Glo) (MCF7 cells): kills
- toxic effects after injection (rats; 30 mg/kg): startle reflex, convulsions and cyanosis
- concentrations achieved in animals (rats): > 10 µM
- toxic effects after injection (rats; ≥60 mg/kg): immediate death
- inhibition of DPP7 (DPP7): does not inhibit
- IC50 [6]: 21500 nM
- sensitivity of cells to compound (LDH) [7]: resistant
- cell killing (CellTiter-Glo) (HT-1080 cells): kills
- GSDMD cleavage (GSDMD): significant cleavage of GSDMD
- LDH release (THP-1 macrophages [8]): induced similar LDH release
- LDH release (RAW 264.7 cells): induced similar LDH release
- cell killing [9]: kills
- caspase-1-independent cell death ([9]; mouse RAW 264.7 cells, 10 μM): small amounts of caspase-1-independent cell death

Molecule: CC(C)[C@H](N)C(=O)N1CCC[C@H]1B(O)O [Val-boroPro]
- additional LDH release / cytotoxicity [1]: induce additional cytotoxicity
- LDH release (J774 cells [10]): released LDH
- additional LDH increase [5]: no additional LDH increase
- serum CXCL1/KC increase [11]: no increase
- serum G-CSF increase [11]: no increase
- serum CXCL1/KC induction (wild-type mice): dramatically induces
- serum G-CSF induction (wild-type mice): dramatically induces
- inhibition of DPP7 (DPP7; relative to DPP4, DPP8, DPP9): more weakly inhibit
- inhibition of SCPEP1 (previously unknown target) (SCPEP1): inhibited
- LDH release (U937 cells): do not release LDH
- sensitivity of cells to compound (LDH) [7]: resistant
- LDH release [12]: released LDH
- LDH release [13]: released LDH
- cytotoxic response (LDH) (ASC-knockout THP-1 cells): responded equivalently
- LDH release (HL-60 cells): released LDH
- GSDMD cleavage (GSDMD): significant cleavage of GSDMD
- increase of intracellular pro-IL-1β levels (THP-1 macrophages [14]): ~ 2 fold
- LDH release (THP-1 macrophages [8]): induced similar LDH release
- LDH release (RAW 264.7 cells): released LDH; also recorded: induced similar LDH release
- onset of induced cell death [15]: significantly delayed
- cell killing [9]: resistant

Molecule: N#C[C@@H]1C[C@@H]2C[C@@H]2N1C(=O)[C@@H](N)C12CC3CC(CC(O)(C3)C1)C2 [saxagliptin]
- IC50 (control THP-1 cells; Homo sapiens, THP-1, 48 h): 2500 to 18700 nM

Molecule: N#C[C@@H]1CCCN1C(=O)CNC12CC3CC(CC(O)(C3)C1)C2 [vildagliptin]
- IC50 (control THP-1 cells; Homo sapiens, THP-1, 48 h): 2500 to 18700 nM

Molecule: Ac-YVAD-CMK
- effect on cumulative Val-boroPro-induced LDH release (THP-1 macrophages [8]; THP-1, over 24 hours): no impact
- blockade of Val-boroPro-induced pyroptosis (THP-1 macrophages [8]): completely blocked
- effect on cumulative Val-boroPro-induced LDH release (RAW 264.7 cells): no impact
- blockade of Val-boroPro-induced pyroptosis (RAW 264.7 cells): completely blocked

Molecule: Cbz-Val-Ala-Asp-CH2F
- blockade of Val-boroPro-induced pyroptosis (THP-1 macrophages [8]): completely blocked
- effect on cumulative Val-boroPro-induced LDH release (RAW 264.7 cells): only partially reduced
- blockade of Val-boroPro-induced pyroptosis (RAW 264.7 cells): completely blocked
